Experiments:
Nav1.3 sodium channel [1] = molecular target: T1, Nav1.3 sodium channel (Homo sapiens, UniProt Q9NY46); test: High-throughput persistent sodium current assay (VIPR, FRET dyes): Na+-dependent depolarization of HEK-Nav1.3 cells; assay type: cell-based; parameters: expressed in transfected cells; host or cells: HEK-293 (human embryonic kidney) cells, G418-selected (HEK-Nav1.3); conditions: 10 μM tetracaine, HEK-Nav1.3, FIG. 2
tactile allodynia = test: Spinal nerve ligation (Chung) model of neuropathic pain, tactile allodynia by von Frey hairs; assay type: in vivo; conditions: rat, 10 mg/kg i.p., 30 minutes after dosing, FIG. 6
Protocol: Paw withdrawal threshold (gram force) was determined using von Frey filament stimulation and the Dixon's up-down method. Allodynic response was measured at baseline (0 min) and at 15, 30, 60 and 120 min after of 10 mg/kg IP injection of Compound 1 or vehicle control. Percent reversal of allodynia compared with non-injected rats was calculated. Six rats were used at each dose. Data were analyzed by analysis of variance and Dunnett's test reversal of allodynia was considered significant if P<0.05
Compound 1 was tested in a rodent model of neuropathic pain known to be predictive of clinical activity, see, e.g., Kim & Chung, supra, (1992). Following ligation of two spinal nerves, the animals developed sensitivity to normally non-painful stimuli such as touch. The ability of Compound 1 to reverse this sensitivity, called allodynia, was tested 30 minutes after dosing by intraperitoneal administration.
The animal model used involved the surgical ligation of the L5 (and optionally the L6) spinal nerves on one side in experimental animals. […]
Tactile allodynia was measured prior to and 30 minutes after drug administration using von Frey hairs, which are a series of fine hairs with incremental differences in stiffness. […] The applied force has been calculated to range from 0.41 to 15.1 grams. […]

Nav1.3 sodium channel [2] = molecular target: T1, Nav1.3 sodium channel
[3] = 3 μM, 200 msec pulse to 0 mV from -90 mV, FIG. 4

T1 sequence (Q9NY46 whole entry): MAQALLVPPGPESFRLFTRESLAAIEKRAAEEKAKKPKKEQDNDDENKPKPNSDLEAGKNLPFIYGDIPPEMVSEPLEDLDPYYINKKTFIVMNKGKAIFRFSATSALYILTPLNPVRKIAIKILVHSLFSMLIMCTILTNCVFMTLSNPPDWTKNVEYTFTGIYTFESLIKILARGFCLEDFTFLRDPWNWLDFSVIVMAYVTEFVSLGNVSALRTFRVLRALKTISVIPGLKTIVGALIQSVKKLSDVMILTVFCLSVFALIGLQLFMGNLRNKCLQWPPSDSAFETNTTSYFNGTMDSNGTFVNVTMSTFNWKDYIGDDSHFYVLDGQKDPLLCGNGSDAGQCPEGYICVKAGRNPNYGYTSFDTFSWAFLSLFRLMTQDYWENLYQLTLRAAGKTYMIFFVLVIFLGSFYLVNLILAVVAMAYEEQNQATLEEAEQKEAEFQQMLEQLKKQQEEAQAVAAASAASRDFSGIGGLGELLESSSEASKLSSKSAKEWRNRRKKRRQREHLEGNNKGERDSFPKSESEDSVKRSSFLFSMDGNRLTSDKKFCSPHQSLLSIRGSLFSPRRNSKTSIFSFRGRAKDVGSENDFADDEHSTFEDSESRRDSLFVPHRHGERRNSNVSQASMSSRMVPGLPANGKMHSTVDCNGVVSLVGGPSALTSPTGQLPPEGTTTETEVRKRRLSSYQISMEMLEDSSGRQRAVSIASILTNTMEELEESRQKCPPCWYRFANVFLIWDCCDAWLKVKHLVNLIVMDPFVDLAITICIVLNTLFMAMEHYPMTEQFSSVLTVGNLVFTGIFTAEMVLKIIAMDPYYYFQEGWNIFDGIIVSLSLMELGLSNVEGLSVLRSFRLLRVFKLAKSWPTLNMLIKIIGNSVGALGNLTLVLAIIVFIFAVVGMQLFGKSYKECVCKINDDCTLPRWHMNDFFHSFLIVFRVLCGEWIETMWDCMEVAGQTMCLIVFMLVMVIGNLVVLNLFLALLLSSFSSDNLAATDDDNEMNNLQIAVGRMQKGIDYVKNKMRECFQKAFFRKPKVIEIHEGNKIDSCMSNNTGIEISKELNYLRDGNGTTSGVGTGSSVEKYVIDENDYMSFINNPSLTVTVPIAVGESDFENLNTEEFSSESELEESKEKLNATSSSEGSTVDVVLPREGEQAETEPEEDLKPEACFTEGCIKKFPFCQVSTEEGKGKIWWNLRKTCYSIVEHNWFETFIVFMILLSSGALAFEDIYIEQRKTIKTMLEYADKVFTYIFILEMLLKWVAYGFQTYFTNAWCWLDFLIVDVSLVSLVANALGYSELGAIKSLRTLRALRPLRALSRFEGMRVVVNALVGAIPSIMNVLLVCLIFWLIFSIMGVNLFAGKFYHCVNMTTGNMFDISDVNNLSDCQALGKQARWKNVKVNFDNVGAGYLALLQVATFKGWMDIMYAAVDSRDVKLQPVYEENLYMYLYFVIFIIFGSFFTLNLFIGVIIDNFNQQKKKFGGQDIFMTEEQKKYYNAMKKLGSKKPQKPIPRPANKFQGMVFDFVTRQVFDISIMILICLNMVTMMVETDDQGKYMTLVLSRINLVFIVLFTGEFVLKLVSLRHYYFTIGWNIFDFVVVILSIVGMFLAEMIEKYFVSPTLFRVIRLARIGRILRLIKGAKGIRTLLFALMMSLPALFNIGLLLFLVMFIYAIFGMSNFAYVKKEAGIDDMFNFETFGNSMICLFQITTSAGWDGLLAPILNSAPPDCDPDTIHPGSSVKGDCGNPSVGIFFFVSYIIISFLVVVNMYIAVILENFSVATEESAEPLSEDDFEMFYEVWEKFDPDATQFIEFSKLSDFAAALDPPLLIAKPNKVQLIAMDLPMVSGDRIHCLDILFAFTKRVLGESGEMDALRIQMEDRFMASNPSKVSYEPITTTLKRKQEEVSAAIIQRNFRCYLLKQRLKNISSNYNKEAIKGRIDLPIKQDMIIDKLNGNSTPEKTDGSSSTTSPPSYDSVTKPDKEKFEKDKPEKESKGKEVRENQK

Row | SMILES | Inhibition of Na+-dependent change in Rf/Ri (depolarization) (Nav1.3 sodium channel [1]) | Reduction in allodynia with respect to a vehicle control (tactile allodynia) | Block of persistent current (Nav1.3 sodium channel [2]; [3]) | Reduction of transient current (Nav1.3 sodium channel [2]; [3]) | Hillslope, persistent current (Ip) (Nav1.3 sodium channel [2]; Hill equation fit, FIG. 5) | Hillslope, transient Na+ current (It) (Nav1.3 sodium channel [2]; Hill equation fit, FIG. 5)
1 | CCCCNc1ccc(C(=O)OCCN(C)C)cc1 [Tetracaine, tetracaine] | inhibited | – | – | – | – | –
2 | O=C(NCCCCc1ccccc1)c1cccs1 [Compound 1, thiophene-2-carboxylic acid (4-phenyl-butyl)-amide] | – | 80% | 99% | 16% | 0.733 | 0.354
